Results: patent US6395737B1, “Malonic acid derivatives, processes for their preparation, for their use and pharmaceutical compositions containing them” (Aventis Pharma Deutschland GmbH, priority 1999, dated 2002)
Read-outs that look alike come from different tables or passages of the source.

Legend:
factor Xa [1] = molecular target: T1, factor Xa (Homo sapiens, UniProt P00742); assay: In vitro Factor Xa assay (Test 1a), chromogenic substrate S-2765; assay type: biochemical; parameters: purchased Enzyme Research Laboratories, Inc; South Bend, Ind; settings: Factor Xa inhibitory activity; Ki from IC50 corrected for substrate competition; 0.5 nM enzyme, 140 μM S-2765, 25° C.
T1 sequence (P00742 235-488 limits assumed): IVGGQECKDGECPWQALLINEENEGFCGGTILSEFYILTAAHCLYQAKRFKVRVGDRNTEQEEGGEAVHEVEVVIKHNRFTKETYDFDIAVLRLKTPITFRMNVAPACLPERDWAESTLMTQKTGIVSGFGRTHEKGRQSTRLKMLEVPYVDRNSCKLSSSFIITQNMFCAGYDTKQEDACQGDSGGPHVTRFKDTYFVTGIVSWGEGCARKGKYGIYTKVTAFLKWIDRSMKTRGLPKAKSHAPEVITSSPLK
T1 sequence (P00742 41-179 partner limits assumed): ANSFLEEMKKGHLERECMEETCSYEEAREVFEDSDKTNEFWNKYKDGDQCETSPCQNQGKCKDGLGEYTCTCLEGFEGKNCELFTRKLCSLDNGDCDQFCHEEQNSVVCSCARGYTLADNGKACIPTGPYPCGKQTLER
Text: The ability of a compound of formula I to inhibit factor Xa, thrombin, plasmin, elastase and trypsin may be assessed by determining the concentration of compound of formula I that inhibits enzyme activity by 50% (IC50). Purified enzymes are used in chromogenic assays. To determine the inhibition constant, the IC50 value is corrected for competition with substrate using the formula:
Ki=IC50×(1/{1+((substrate concentration)/substrate Km)})
where Km is the Michaelis-Menten-constant (Y.-C. Chen and W.H. Prusoff, Biochem. Pharmacol. 22: […] (1973), which is incorporated herein by reference).
TBS-PEG buffer (50 mM Tris-Cl, pH 7.8, 200 mM NaCl, 0.05% (w/v) PEG-8000, 0.02% (w/v) NaN3) is used for this assay. The IC50 is determined by combining in appropriate wells of a Costar half-area microtiter plate 25 μl human factor Xa (Enzyme Research Laboratories, Inc.; South Bend, Ind.) in TBS-PEG; 40 μl 10% (v/v) DMSO in TBS-PEG (uninhibited control) or various concentrations of the compound to be tested diluted in 10% (v/v) DMSO in TBS-PEG; and substrate S-2765 (N-benzyloxycarbonyl-D-Arg-Gly-L-Arg-p-nitroanilide; Kabi Pharmacia, Inc.; Franklin Ohio) in TBS-PEG.
The assays are performed by pre-incubating the compound of formula I plus enzyme for 10 min, then the assay is initiated by adding substrate to obtain a final volume of 100 μl. The initial velocity of chromogenic substrate hydrolysis is measured by the change in absorbance at 405 nm using a Bio-tek Instruments kinetic plate reader (Ceres UV900HDi) at 25° C. during the linear portion of the time course (usually 1.5 min after addition of substrate). The concentration of inhibitor that causes a 50% decrease in the rate of substrate hydrolysis is predicted by linear regression after plotting the relative rates of hydrolysis (compared to the uninhibited control) versus the log of the compound of formula I concentration. The enzyme concentration is 0.5 nM and substrate concentration is 140 μM.

factor Xa [2] = molecular target: T1, factor Xa; settings: cited from earlier work
thrombin and factor Xa = settings: rate of inactivation, thrombin relative to factor Xa; cited from earlier work

Molecule	melting point	Ki (factor Xa [1]) [nM]	further results
CC(C)(C)OC(=O)N1CCN(CCNC(=O)[C@@H](NC(=O)C(Cc2ccc(C(=N)N)cc2)C(=O)NCc2ccccc2)C2CCCCC2)CC1.O=C(O)C(F)(F)F (stereo partly drawn)	125 to 128 °C	–	–
TAP: tick anticoagulant peptide, isolated from the tick Ornithodoros moubata, contains 60 amino acids; inhibitor of factor Xa (YNRLCIKPRDWIDECDSNEGGERAYFRNGKGGCDSFWICPEDHTGADYYSSYRDCFNACI; UniProt P17726 1-60, looked up)	–	–	Ki (factor Xa [2]): ~0.5 nM
heparin	–	–	thrombin inactivated faster than factor Xa (thrombin and factor Xa): approximately 100 times

Continued, in another order:

melting point	Ki (factor Xa [1]) [nM]	Molecule	further results
196 °C (dec.)	–	N=C(N)c1ccc(CC(C(=O)NCc2ccccc2)C(=O)N[C@H](C(=O)NCCN2CCNCC2)C2CCCCC2)cc1.O=C(O)C(F)(F)F (stereo partly drawn)	–
–	2	CN(C)C(=O)C(Cc1ccc(C(=N)N)cc1)C(=O)N[C@H](C(=O)NCC1CCC(C(=N)N)CC1)C1CCCCC1 (stereo partly drawn) [Example 116, 2-(4-Carbamimidoyl-benzyl)-N-{(S)-[(4-carbamimidoyl-cyclohexylmethyl)-carbamoyl]-cyclohexyl-methyl}-N′,N′-dimethyl-malonamide]	–
–	6	CN(C)C(=N)c1ccc(CC(C(=O)NC(C(=O)NCC2CCC(C(=N)N(C)C)CC2)C2CCCCC2)C(=O)N(C)C)cc1 [Example 120, N-(S)-(Cyclohexyl-{[4-(N,N-dimethyl-carbamimidoyl)-cyclohexylmethyl]-carbamoyl}-methyl)-2-[4-(N,N-dimethyl-carbamimidoyl)-benzyl]-N′,N′-dimethyl-malonamide]	–
